{"source": "PubChem BioAssay (NCI)", "experiment_in_all_cases": "NCI tumour cell line growth inhibition, 48 h", "key": {"[1]": {"system": "786-0 renal"}, "[2]": {"system": "A498 renal"}, "[3]": {"system": "A549 NSCLC"}, "[4]": {"system": "ACHN renal"}, "[5]": {"system": "BT-549 breast"}, "[6]": {"system": "CAKI-1 renal"}, "[7]": {"system": "CCRF-CEM leukemia"}, "[8]": {"system": "COLO 205 colon"}, "[9]": {"system": "DU-145 prostate"}, "[10]": {"system": "EKVX NSCLC"}, "[11]": {"system": "HCC-2998 colon"}, "[12]": {"system": "HCT-116 colon"}, "[13]": {"system": "HCT-15 colon"}, "[14]": {"system": "HL-60(TB) leukemia"}, "[15]": {"system": "HOP-62 NSCLC"}, "[16]": {"system": "HOP-92 NSCLC"}, "[17]": {"system": "HS 578T breast"}, "[18]": {"system": "HT29 colon"}, "[19]": {"system": "IGROV1 ovarian"}, "[20]": {"system": "K-562 leukemia"}, "[21]": {"system": "KM12 colon"}, "[22]": {"system": "LOX IMVI melanoma"}, "[23]": {"system": "M14 melanoma"}, "[24]": {"system": "MALME-3M melanoma"}, "[25]": {"system": "MCF7 breast"}, "[26]": {"system": "MDA-MB-231 breast"}, "[27]": {"system": "MDA-MB-435"}, "[28]": {"system": "MDA-N"}, "[29]": {"system": "MOLT-4 leukemia"}, "[30]": {"system": "NCI-H226 lung"}, "[31]": {"system": "NCI-H23 lung"}, "[32]": {"system": "NCI-H460 lung"}, "[33]": {"system": "NCI-H522 lung"}, "[34]": {"system": "NCI/ADR-RES ovarian"}, "[35]": {"system": "OVCAR-3 ovarian"}, "[36]": {"system": "OVCAR-4 ovarian"}, "[37]": {"system": "OVCAR-5 ovarian"}, "[38]": {"system": "OVCAR-8 ovarian"}, "[39]": {"system": "PC-3 prostate"}, "[40]": {"system": "RPMI-8226 leukemia"}, "[41]": {"system": "RXF 393 renal"}, "[42]": {"system": "SF-268 CNS"}, "[43]": {"system": "SF-295 CNS"}, "[44]": {"system": "SF-539 CNS"}, "[45]": {"system": "SK-MEL-2 melanoma"}, "[46]": {"system": "SK-MEL-28 melanoma"}, "[47]": {"system": "SK-MEL-5 melanoma"}, "[48]": {"system": "SK-OV-3 ovarian"}, "[49]": {"system": "SN12C renal"}, "[50]": {"system": "SNB-19 CNS"}, "[51]": {"system": "SNB-75 CNS"}, "[52]": {"system": "SR leukemia"}, "[53]": {"system": "SW-620 colon"}, "[54]": {"system": "T-47D breast"}, "[55]": {"system": "TK-10 renal"}, "[56]": {"system": "U251 CNS"}, "[57]": {"system": "UACC-257 melanoma"}, "[58]": {"system": "UACC-62 melanoma"}, "[59]": {"system": "UO-31 renal"}}, "note": "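The compound was tested at five concentrations on cells cultured in 96-well plates, with a 48-hour exposure period. TGI is the concentration that stops growth completely.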", "data": [{"smiles": "COc1cc(C2c3cc4c(cc3CC3COC(=O)N32)OCO4)cc(OC)c1OC", "note": "(centres undefined)", "values": [{"measurement": "TGI", "setting": "[1]", "value": "> 100", "unit": "µM"}, {"measurement": "TGI", "setting": "[2]", "value": "> 100", "unit": "µM"}, {"measurement": "TGI", "setting": "[3]", "value": "> 100", "unit": "µM"}, {"measurement": "TGI", "setting": "[4]", "value": "> 100", "unit": "µM"}, {"measurement": "TGI", "setting": "[5]", "value": "> 100", "unit": "µM"}, {"measurement": "TGI", "setting": "[6]", "value": "> 100", "unit": "µM"}, {"measurement": "TGI", "setting": "[7]", "value": "> 36.4", "unit": "µM"}, {"measurement": "TGI", "setting": "[8]", "value": 4.89, "unit": "µM"}, {"measurement": "TGI", "setting": "[9]", "value": "> 100", "unit": "µM"}, {"measurement": "TGI", "setting": "[10]", "value": "> 100", "unit": "µM"}, {"measurement": "TGI", "setting": "[11]", "value": 8.7, "unit": "µM"}, {"measurement": "TGI", "setting": "[12]", "value": "> 100", "unit": "µM"}, {"measurement": "TGI", "setting": "[13]", "value": "> 27.9", "unit": "µM"}, {"measurement": "TGI", "setting": "[14]", "value": 8.6, "unit": "µM"}, {"measurement": "TGI", "setting": "[15]", "value": "> 100", "unit": "µM"}, {"measurement": "TGI", "setting": "[16]", "value": "> 94.9", "unit": "µM"}, {"measurement": "TGI", "setting": "[17]", "value": "> 57.2", "unit": "µM"}, {"measurement": "TGI", "setting": "[18]", "value": 5.14, "unit": "µM"}, {"measurement": "TGI", "setting": "[19]", "value": "> 100", "unit": "µM"}, {"measurement": "TGI", "setting": "[20]", "value": "> 100", "unit": "µM"}, {"measurement": "TGI", "setting": "[21]", "value": "> 61.7", "unit": "µM"}, {"measurement": "TGI", "setting": "[22]", "value": "> 100", "unit": "µM"}, {"measurement": "TGI", "setting": "[23]", "value": "> 100", "unit": "µM"}, {"measurement": "TGI", "setting": "[24]", "value": "> 100", "unit": "µM"}, {"measurement": "TGI", "setting": "[25]", "value": "> 100", "unit": "µM"}, {"measurement": "TGI", "setting": "[26]", "value": 30, "unit": "µM"}, {"measurement": "TGI", "setting": "[27]", "value": 1.44, "unit": "µM"}, {"measurement": "TGI", "setting": "[28]", "value": 1.28, "unit": "µM"}, {"measurement": "TGI", "setting": "[29]", "value": "> 61.8", "unit": "µM"}, {"measurement": "TGI", "setting": "[30]", "value": "> 92.5", "unit": "µM"}, {"measurement": "TGI", "setting": "[31]", "value": "> 31.6", "unit": "µM"}, {"measurement": "TGI", "setting": "[32]", "value": "> 100", "unit": "µM"}, {"measurement": "TGI", "setting": "[33]", "value": 5.66, "unit": "µM"}, {"measurement": "TGI", "setting": "[34]", "value": 4.26, "unit": "µM"}, {"measurement": "TGI", "setting": "[35]", "value": 5.05, "unit": "µM"}, {"measurement": "TGI", "setting": "[36]", "value": "> 100", "unit": "µM"}, {"measurement": "TGI", "setting": "[37]", "value": "> 100", "unit": "µM"}, {"measurement": "TGI", "setting": "[38]", "value": "> 100", "unit": "µM"}, {"measurement": "TGI", "setting": "[39]", "value": "> 100", "unit": "µM"}, {"measurement": "TGI", "setting": "[40]", "value": "> 100", "unit": "µM"}, {"measurement": "TGI", "setting": "[41]", "value": "> 100", "unit": "µM"}, {"measurement": "TGI", "setting": "[42]", "value": "> 100", "unit": "µM"}, {"measurement": "TGI", "setting": "[43]", "value": 5.35, "unit": "µM"}, {"measurement": "TGI", "setting": "[44]", "value": 5.8, "unit": "µM"}, {"measurement": "TGI", "setting": "[45]", "value": "> 100", "unit": "µM"}, {"measurement": "TGI", "setting": "[46]", "value": "> 100", "unit": "µM"}, {"measurement": "TGI", "setting": "[47]", "value": 35.6, "unit": "µM"}, {"measurement": "TGI", "setting": "[48]", "value": "> 100", "unit": "µM"}, {"measurement": "TGI", "setting": "[49]", "value": "> 48.1", "unit": "µM"}, {"measurement": "TGI", "setting": "[50]", "value": "> 100", "unit": "µM"}, {"measurement": "TGI", "setting": "[51]", "value": "> 100", "unit": "µM"}, {"measurement": "TGI", "setting": "[52]", "value": "> 28.7", "unit": "µM"}, {"measurement": "TGI", "setting": "[53]", "value": "> 100", "unit": "µM"}, {"measurement": "TGI", "setting": "[54]", "value": "> 100", "unit": "µM"}, {"measurement": "TGI", "setting": "[55]", "value": "> 100", "unit": "µM"}, {"measurement": "TGI", "setting": "[56]", "value": "> 31.6", "unit": "µM"}, {"measurement": "TGI", "setting": "[57]", "value": "> 100", "unit": "µM"}, {"measurement": "TGI", "setting": "[58]", "value": "> 100", "unit": "µM"}, {"measurement": "TGI", "setting": "[59]", "value": "> 100", "unit": "µM"}]}]}
